pIC50: −log10 of the molar value. Activity calls are given as the source filed them.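 Rule for the calls: active = in confirmatory dose-response testing, peak deubiquitinase inhibition of 30% or more; inactive = the rest.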 Positions of bridges follow the written chain, without caps; N, C: chain ends. Residues, ends and D or L forms follow the SMILES beside them. ξ: configuration not given here. *: point of attachment. Pentadecanoyl(3ξ-OH,15-Gua) = N=C(N)NCCCCCCCCCCCCC(O)CC(=O)*
Each compound was assayed against Ubiquitin carboxyl-terminal hydrolase 28 (Homo sapiens) (UniProt Q96RU2) (assay: Ubiquitin-specific peptidase 28 DUB inhibitors, biochemical concentration-dependence assay, validation of primary screening hits (AID 1645866)). Details: purified USP28, ubiquitin-rhodamine fluorescence, 30 min.
Sequence of Ubiquitin carboxyl-terminal hydrolase 28 (Homo sapiens) (Q96RU2 whole entry, looked up): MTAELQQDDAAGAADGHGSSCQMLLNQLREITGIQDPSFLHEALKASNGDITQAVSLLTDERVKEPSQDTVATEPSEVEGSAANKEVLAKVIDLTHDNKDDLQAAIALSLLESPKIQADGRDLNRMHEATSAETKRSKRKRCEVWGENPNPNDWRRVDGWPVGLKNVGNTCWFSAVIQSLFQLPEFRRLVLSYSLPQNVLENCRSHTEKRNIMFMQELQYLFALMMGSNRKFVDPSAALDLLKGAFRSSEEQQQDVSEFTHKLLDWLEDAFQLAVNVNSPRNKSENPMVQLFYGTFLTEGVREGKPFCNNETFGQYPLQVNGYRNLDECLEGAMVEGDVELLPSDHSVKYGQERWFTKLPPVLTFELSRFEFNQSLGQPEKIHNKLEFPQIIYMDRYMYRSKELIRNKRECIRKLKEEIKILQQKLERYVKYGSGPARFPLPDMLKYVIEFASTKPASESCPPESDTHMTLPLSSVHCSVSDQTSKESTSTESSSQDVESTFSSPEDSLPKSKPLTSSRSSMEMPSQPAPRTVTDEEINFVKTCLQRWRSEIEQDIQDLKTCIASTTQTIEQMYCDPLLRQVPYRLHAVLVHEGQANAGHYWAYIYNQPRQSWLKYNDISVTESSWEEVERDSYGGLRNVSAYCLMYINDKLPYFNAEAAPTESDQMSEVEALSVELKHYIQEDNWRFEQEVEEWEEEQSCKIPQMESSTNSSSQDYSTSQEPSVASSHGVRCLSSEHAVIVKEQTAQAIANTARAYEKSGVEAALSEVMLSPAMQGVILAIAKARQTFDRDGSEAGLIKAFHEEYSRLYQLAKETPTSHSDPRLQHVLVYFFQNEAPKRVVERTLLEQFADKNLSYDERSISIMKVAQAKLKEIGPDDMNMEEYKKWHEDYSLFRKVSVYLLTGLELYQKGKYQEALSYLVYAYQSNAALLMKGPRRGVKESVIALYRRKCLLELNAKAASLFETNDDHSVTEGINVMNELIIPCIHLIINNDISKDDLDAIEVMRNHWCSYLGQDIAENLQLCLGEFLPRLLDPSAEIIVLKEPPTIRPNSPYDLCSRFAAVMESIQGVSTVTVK

| Compound | IC50 | pIC50 |
| --- | --- | --- |
| O=C(c1cnccn1)N1CCc2[nH]c3ccc(F)cc3c2C1 | > 50 µM (inactive) | – |
| Fc1ccccc1N1CCN(c2ncc3c(n2)CCN(Cc2ccccn2)C3)CC1 | – | 4.51 |
| Cc1ccc(CNC(=O)c2cccc(N3C(=O)N4CCc5c([nH]c6ccccc56)[C@@]4(C)C3=O)c2)cc1 | – | 4.36 |
| O=C(Cn1c(CSc2ccccc2)nc2ccccc21)Nc1ccccc1F | – | 4.58 |
| COC(=O)c1ccc(NC(=O)CSc2nnc(-c3ccc(O)cc3)n2Cc2ccco2)cc1 | – | 4.47 |
| COc1cccc(NC(=O)c2cnc3c(c2)c(=O)n(C)c(=O)n3C)c1 | – | 5.61 |
| O=C(NCc1cccnc1)C1CCN(c2cnc(N3CCCCCC3)nc2)CC1 | – | 7.16 |
| COc1ccc(CN(C(=O)c2cc(-c3ccc(C)cc3)on2)C2CCS(=O)(=O)C2)cc1 (centres undefined) | – | 4.42 |
| Fc1ccc(Cn2ccc(-c3cnc(-c4ccccc4)s3)n2)cc1 | – | 4.56 |
| Cc1nc(-c2cccc(NC(=O)C3CCN(c4ccccc4)C3=O)c2)no1 (centres undefined) | – | 4.56 |
| CC(=O)c1ccc(NC(=O)CSc2nc(-c3ccccc3)nc3c2COC(C)(C)C3)cc1 | – | 5.39 |
| Cc1ccccc1C(=O)OCCN1C(=O)c2cccc3c(N4CCOCC4)ccc(c23)C1=O | > 50 µM (inactive) | – |
| O=C(Cn1cc(C(=O)C(F)(F)F)c2ccccc21)N1CCc2ccccc21 | – | 5.57 |
| CC12c3ccc4c(c3C(=O)c3occ(c31)C(=O)CC2O)CCC4=O (centres undefined) | > 50 µM (inactive) | – |
| Cc1ccc(OCC(=O)Nc2cccc(-c3nc4ncccc4o3)c2)c(C)c1 | – | 4.41 |
| COc1cc(Cl)ccc1Nc1ncc(C(=O)Nc2cc(OC)c(OC)c(OC)c2)c2ccccc12 | – | > 7.30 |
| c1ccc2c(c1)ccc1nnc(-c3ccc4c(c3)OCO4)n12 | > 50 µM (inactive) | – |
| Nc1ncnc2c1ncn2[C@@H]1O[C@H](CO)C[C@@H]1O | – | 4.58 |
| CN(CCCNC(=O)c1cccc2c1SCCC2=O)c1ccccc1 | > 50 µM (inactive) | – |
| CSc1ncc(C(=O)NC(C)c2ccccc2)c(-c2ccccc2)n1 (centres undefined) | – | 4.73 |
| O=C(COc1nsnc1N1CCOCC1)Nc1ccccc1F | > 50 µM (inactive) | – |
| O=C(Cn1ncc2c(N3CCCCCC3)ncnc21)NCc1ccccc1 | > 50 µM (inactive) | – |
| Fc1cccc(Cn2cc(-c3noc(-c4cccnc4)n3)nn2)c1 | – | 4.54 |
| CSc1ccc(CNC(=O)CC2CCN(S(=O)(=O)c3ccc(C)cc3)CC2)cc1 | – | 4.79 |
| CCCCCCCc1cc(O)cc(OC(=O)c2c(CCCCCCC)cc(O)cc2O[C@H]2O[C@H](C(O)CO)[C@@H](O)[C@@H]2O)c1 (some centres undefined) | – | 5.66 |

| Compound | IC50 | pIC50 |
| --- | --- | --- |
| CCN1CCN(C(=O)CCCN(c2ccccc2)S(C)(=O)=O)CC1 | > 50 µM (inactive) | – |
| O=C(Nc1ccc(F)cc1)Nc1ccccc1OCc1cc(=O)n2ccccc2n1 | – | 5.03 |
| COc1cccc(CNC(=O)c2ccc3c(c2)NC(=O)C2CCCN32)c1OC (centres undefined) | > 50 µM (inactive) | – |
| Cc1ccc(NC(=O)CNC(=O)c2cc3ccccc3o2)cc1 | – | 4.67 |
| COc1cc(NC(=O)c2cc(-c3ccncc3)n(-c3ccc(F)cc3)n2)cc(OC)c1 | – | 4.92 |
| O=C(COc1nc2ccccc2nc1N1CCOCC1)NC(c1ccccc1)c1ccccc1 | > 50 µM (inactive) | – |
| COc1ccc(C(C(=O)NC2CCCCC2)N(C(=O)CCCC(=O)Nc2ccccn2)c2ccccc2C)cc1 (centres undefined) | – | 4.77 |
| O=C1CN(C(=O)COC(=O)CCCN2C(=O)c3cccc4cccc(c34)C2=O)c2ccccc2N1 | – | 4.31 |
| Cc1nn(CC(=O)NCc2ccccc2F)c2ccccc12 | > 50 µM (inactive) | – |
| O=c1sc2ccccc2c(=O)n1Cc1cccc(C(F)(F)F)c1 | – | 5.96 |
| C/C=C\C1=CC(=O)[C@]23C[C@H]2[C@]2(C)CO[C@@]1(O)[C@@]3(O)O2 | > 50 µM (inactive) | – |
| CCC1=C(c2ccc(C)cc2)S(=O)(=O)NC1=NCC(=O)NC(C)c1ccccc1 (centres undefined) | – | 4.71 |
| CC1NC(=O)C(CC(N)=O)NC(=O)C(C(C)O)NC(=O)C(Cc2ccc(O)cc2)NC(=O)C(C(C)C)NC(=O)C(NC(=O)CC(O)CCCCCCCCCCCCN=C(N)N)C(C)OC1=O (centres undefined) ({Pentadecanoyl(3ξ-OH,15-Gua)}-TVYTNA; ester 1-C; configuration not given here) | – | 5.44 |
| Cc1oc(-c2ccc(C(=O)NCC3COCCO3)cc2)nc1CN1CCc2ccccc21 (centres undefined) | – | 4.41 |
| Cc1nnc(Sc2cc(C(=O)NCCN3CCCC3)c3ccccc3n2)s1 | > 50 µM (inactive) | – |
| CCn1c(Cn2cccn2)nc2cc(NC(=O)c3ccc(F)cc3)ccc21 | – | 4.81 |
| CCCCCCCCCC(CCCCCCCCCC(=O)O)O[C@H]1O[C@@H](COC(C)=O)[C@H](O)[C@@H](O)[C@H]1OC(=O)CC(=O)O (some centres undefined) | – | 4.73 |
| O=C(Nc1ccc(-c2nnc3n2CCCCC3)cc1)c1ccc2c(c1)OCO2 | – | 5.13 |
| O=C(O)CCCCCN1C(=O)CC(c2ccc(Cl)cc2)CC1=O | – | 4.78 |
| CC(=O)O[C@H]1[C@]2(O)C[C@]34SS[C@](CO)(C(=O)N3[C@@H]2C[C@@]12O[C@@H](C)C(C)(C)C2=O)N(C)C4=O | > 50 µM (inactive) | – |
| CC(C)CC[C@H]1O[C@@H](CC(=O)O)Cc2cc3c(c(O)c21)C(=O)c1sc(=O)n(C)c1C3=O | – | 5.56 |
| O=C(Nc1cccc(Br)c1)c1cc(-c2cccnc2)n[nH]1 | – | 5.67 |
| COc1cc2c(c(OCC(=O)Nc3ccc4c(c3)OCCO4)c1)C(=O)O[C@@H](C)CCCC(=O)CCCCC2 | – | 4.68 |
| O=C(COC(=O)CCc1ccc(S(=O)(=O)N2CCOCC2)cc1)Nc1ccc2c(c1)OCCO2 | – | 5.14 |

From PubChem BioAssay AID1645866 (Buhrlage Lab, Dana-Farber Cancer Institute and Novartis …, 2021)
